Results taken from patent US20170219562A1, “EPIGENETIC COMPOUND SCREENING PLATFORM” (Legacy Emanuel Hospital & Health Center, priority 2016, published 2017).

What was measured:
[1] = system: ADK-S cells; assay: 5-methylcytosine (5-mC) ELISA of genomic DNA from treated ADK-S cells; assay type: cell-based; conditions: for DNA methylation levels in ADK-S cells compared to vehicle-treated ADK-S cells: compound at its IC50, 24 hours after treatment, n=4-9
Description: 100 ng of purified genomic DNA was run on a 5-methylcytosine (5-mC) ELISA (Zymo Research Corp.) to quantify 5-methylcytosine.
FIG. 8 is a pair of bar graphs plotting the amount of 5-methylcytosine detected in genomic DNA isolated from the ADK-null cell line (Panel A) and the ADK-S cell line (Panel B) of FIG. 3, in the absence or presence of various ADK inhibitors, with each amount normalized with respect to the amount detected for vehicle-treated ADK-null cells. ADK-null and ADK-S cells identify off target effects of ADK inhibitors on DNA methylation levels. […] The IC50 for each ADK inhibitor was selected as the treatment dose. Total genomic DNA was isolated 24 hours after treatment, and 100 ng of purified DNA was run on a 5-methylcytosine (5-mC) ELISA (Zymo Research Corp) to determine the amount of 5-methylcytosine. […] Data are represented as the mean±SEM (n=4-9). Statistical analysis is a One-way ANOVA followed by uncorrected Fisher's LSD post hoc test.
FIG. 9 is a pair of bar graphs plotting the amount of 5-methylcytosine detected in genomic DNA isolated from the ADK-L cell line (Panel A) and the ADK-S cell line (Panel B) of FIG. 3, in the absence or presence of carbamazepine, with vehicle-treated ADK-null cells as a control. […] The IC50 of CBZ was selected as the treatment dose. Total genomic DNA was isolated 24 hours after treatment, and 100 ng of purified DNA was run on a 5-methylcytosine (5-mC) ELISA (Zymo Research Corp) to determine the amount of 5-methylcytosine. […] Data are represented as the mean±SEM (n=8-9). Statistical analysis is a One-way ANOVA for Panel A (F(2,23)=5.67, p=0.0099) followed by uncorrected Fisher's LSD post hoc test and Kruskal-Wallis test for Panel B (Kruskal-Wallis statistic=1.11, p=0.57).

[2] = system: ADK-L cells; assay: 5-methylcytosine (5-mC) ELISA of genomic DNA from treated ADK-L cells; assay type: cell-based; conditions: compound at its IC50, genomic DNA isolated 24 hours after treatment, 100 ng DNA, n=8-9
Description: The IC50 for each ADK inhibitor was selected as the treatment dose. Total genomic DNA was isolated 24 hours after treatment and 100 ng of purified DNA was run on a 5-methylcytosine (5-mC) ELISA (Zymo Research Corp.) to quantify 5-methylcytosine. […] Data are represented as the mean±SEM (n=8-9). Statistical analysis is a One-way ANOVA (F(4,37)=2.95, p=0.033) followed by uncorrected Fisher's LSD post hoc test.
The IC50 of CBZ was selected as the treatment dose. Total genomic DNA was isolated 24 hours after treatment, and 100 ng of purified DNA was run on a 5-methylcytosine (5-mC) ELISA (Zymo Research Corp) to determine the amount of 5-methylcytosine. […] Data are represented as the mean±SEM (n=8-9). Statistical analysis is a One-way ANOVA for Panel A (F(2,23)=5.67, p=0.0099) followed by uncorrected Fisher's LSD post hoc test and Kruskal-Wallis test for Panel B (Kruskal-Wallis statistic=1.11, p=0.57).

[3] = biological target: ADK (Homo sapiens, UniProt P55263); conditions: cited from earlier work; for IC50: used as treatment dose, read-out: IC50 of ADK inhibitor
Chain of ADK (P55263 whole entry, species assumed): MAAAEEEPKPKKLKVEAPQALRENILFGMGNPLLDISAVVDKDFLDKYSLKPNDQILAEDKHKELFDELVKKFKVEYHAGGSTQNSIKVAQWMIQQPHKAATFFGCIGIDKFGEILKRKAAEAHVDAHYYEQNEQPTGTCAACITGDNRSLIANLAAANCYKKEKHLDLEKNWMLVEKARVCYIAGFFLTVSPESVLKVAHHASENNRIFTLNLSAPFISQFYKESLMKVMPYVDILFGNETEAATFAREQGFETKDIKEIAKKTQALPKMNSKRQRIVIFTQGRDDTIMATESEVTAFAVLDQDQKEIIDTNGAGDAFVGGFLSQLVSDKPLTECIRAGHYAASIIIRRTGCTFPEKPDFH

Nc1ncnc2c1c(I)cn2[C@@H]1O[C@H](CO)[C@@H](O)[C@H]1O [5-ITU, 5-iodotubercidin]
DNA methylation levels in ADK-S cells compared to vehicle-treated ADK-S cells [1]: significantly increased | DNA methylation (5-methylcytosine) in ADK-L cells versus vehicle alone [2]: significantly decreases DNA methylation

Nc1ncnc2c1c(I)cn2[C@@H]1C[C@H](N)[C@@H](O)[C@H]1O [A-134974]
DNA methylation levels in ADK-S cells compared to vehicle-treated ADK-S cells [1]: significantly increased | DNA methylation (5-methylcytosine) in ADK-L cells versus vehicle alone [2]: Neither ABT-702 nor A-134974 alters DNA methylation | IC50 [3]: 0.06 nM

Nc1ncnc2nc(-c3ccc(N4CCOCC4)nc3)cc(-c3cccc(Br)c3)c12 [ABT-702]
DNA methylation (5-methylcytosine) in ADK-L cells versus vehicle alone [2]: Neither ABT-702 nor A-134974 alters DNA methylation | IC50 [3]: 1.7 nM

NC(=O)N1c2ccccc2C=Cc2ccccc21 [CBZ, Carbamazepine]
DNA methylation levels in CBZ-treated ADK-S cells compared to ADK-null cells ([1]; CBZ 24.5 nM, 24 hours after treatment, n=8-9, Kruskal-Wallis p=0.57): not significantly different | DNA methylation (5-methylcytosine) in ADK-L cells versus vehicle alone [2]: does not decrease DNA methylation | Interaction with ADK [3]: does not interact with ADK
